Experimental data from patent publication US20250320501A1, “PALMITOYLATION OF THE ALTERNATIVE AMINO TERMINUS OF THE BTK-C ISOFORM CONTROLS SUBCELLULAR DISTRIBUTION AND SIGNALING” (The Research Foundation for the State University of New York, priority 2022, published 2025).

What was measured:
BTK-A [1] = molecular target: T1, BTK-A (Homo sapiens, UniProt Q06187); test: Acyl incorporation assay (click chemistry after Flag immunoprecipitation), BTK-A; assay type: cell-based; settings: HEK293 cells co-expressing zDHHC5, 100 μM analogue for 4 h
T1 construct: cells expressing Flag-tagged, full-length versions of BTK-A and BTK-C; expressed in transfected cells; host or cells: HEK293
T1 sequence (Q06187 whole entry): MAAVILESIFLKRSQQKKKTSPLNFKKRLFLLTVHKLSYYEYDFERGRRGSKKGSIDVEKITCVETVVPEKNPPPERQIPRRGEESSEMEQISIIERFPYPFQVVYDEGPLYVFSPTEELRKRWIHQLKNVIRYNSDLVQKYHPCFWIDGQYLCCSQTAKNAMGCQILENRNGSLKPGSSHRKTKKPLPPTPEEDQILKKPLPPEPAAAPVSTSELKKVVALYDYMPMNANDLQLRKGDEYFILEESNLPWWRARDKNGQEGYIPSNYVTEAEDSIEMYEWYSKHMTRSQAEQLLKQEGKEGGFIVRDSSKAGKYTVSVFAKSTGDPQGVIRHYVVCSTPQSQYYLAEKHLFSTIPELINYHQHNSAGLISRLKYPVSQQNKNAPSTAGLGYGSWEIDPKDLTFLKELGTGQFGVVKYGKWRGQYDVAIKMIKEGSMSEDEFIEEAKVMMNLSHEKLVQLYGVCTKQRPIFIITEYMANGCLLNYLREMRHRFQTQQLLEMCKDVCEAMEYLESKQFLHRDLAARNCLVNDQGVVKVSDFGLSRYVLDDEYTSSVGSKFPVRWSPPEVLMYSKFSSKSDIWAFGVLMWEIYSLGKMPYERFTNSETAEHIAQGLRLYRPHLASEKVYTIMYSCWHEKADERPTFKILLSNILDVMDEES
Experimental: (§1) FIG. 2A-D presents the BTK-C isoform palmitoylated: FIG. 2A presents a diagram of BTK isoform C-terminal Flag-tagged constructs: FIG. 2B presents an expression of Flag-tagged constructs in MDA-MB-231 cells; FIG. 2C presents detection scheme for acylated BTK isoforms. Cells were incubated with 17-ODYA. Flag immunoprecipitates were reacted with azide-activated biotinylation reagent and detected through reaction with streptavidin-linked horseradish peroxidase; and FIG. 2D presents HEK293 cells were transfected with 1 μg of BTK-A, BTK-C, or BTK-C C13A, C16A and 2 μg of a plasmid expressing zDHHC5. 24 h after transfection cells were incubated for 4 h with 100 μM palmitic acid alkyne (17-ODYA). Cell lysate supernatants were immunoprecipitated with Anti-Flag M2 affinity gel (Sigma) at 4° C. overnight, subjected to click chemistry with 20 μM biotin picolyl azide for 30 m at room temperature before electrophoresis and blotting.
Reporter construction and viral transgenesis: GFP fusion constructs were generated using a BTK pleckstrin homology domain fusion protein vector, PH-Btk-GFP (Addgene Plasmid #51463). BTK constructs (BTK-A R28C; BTK-C; BTK-C R28C; BTK-C C13A, C16A; BTK-C C13A,C16A,R28C) were generated in this plasmid using QuikChange site directed mutagenesis. The exon 1C sequence (FIG. 1B) was subcloned from the original cDNA isolate. […]

BTK-C [2] = molecular target: T2, BTK-C (Homo sapiens, UniProt Q06187, M35A); test: Acyl incorporation assay (click chemistry after Flag immunoprecipitation), BTK-C; assay type: cell-based; settings: HEK293 cells co-expressing zDHHC5, 100 μM analogue for 4 h
T2 construct: cells expressing Flag-tagged, full-length versions of BTK-A and BTK-C; expressed in transfected cells; host or cells: HEK293
T2 sequence (Q06187 1-693 isoform Q06187-2 M35A): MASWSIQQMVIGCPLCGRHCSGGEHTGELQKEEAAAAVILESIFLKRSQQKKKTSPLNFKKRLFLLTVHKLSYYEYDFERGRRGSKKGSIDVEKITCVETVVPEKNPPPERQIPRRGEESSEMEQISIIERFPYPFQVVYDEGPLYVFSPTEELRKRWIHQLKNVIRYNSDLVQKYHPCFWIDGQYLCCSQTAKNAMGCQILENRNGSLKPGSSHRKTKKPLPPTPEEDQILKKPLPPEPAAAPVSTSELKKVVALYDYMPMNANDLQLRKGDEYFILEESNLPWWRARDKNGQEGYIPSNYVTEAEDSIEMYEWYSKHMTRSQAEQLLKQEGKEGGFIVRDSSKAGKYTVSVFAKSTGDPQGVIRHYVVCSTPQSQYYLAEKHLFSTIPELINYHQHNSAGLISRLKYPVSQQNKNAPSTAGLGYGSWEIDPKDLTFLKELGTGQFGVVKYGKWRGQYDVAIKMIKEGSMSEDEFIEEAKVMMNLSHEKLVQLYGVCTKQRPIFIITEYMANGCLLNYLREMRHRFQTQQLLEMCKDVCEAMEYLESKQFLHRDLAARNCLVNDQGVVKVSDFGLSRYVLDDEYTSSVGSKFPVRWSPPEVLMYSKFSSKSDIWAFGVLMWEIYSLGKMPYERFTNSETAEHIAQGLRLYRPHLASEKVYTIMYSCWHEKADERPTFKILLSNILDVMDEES
Experimental: as §1
Reporter construction and viral transgenesis: GFP fusion constructs were generated using a BTK pleckstrin homology domain fusion protein vector, PH-Btk-GFP (Addgene Plasmid #51463). BTK constructs (BTK-A R28C; BTK-C; BTK-C R28C; BTK-C C13A, C16A; BTK-C C13A,C16A,R28C) were generated in this plasmid using QuikChange site directed mutagenesis. The exon 1C sequence (FIG. 1B) was subcloned from the original cDNA isolate. To prevent internal translational initiation at the BTK-A ATG, this codon was changed to Ala in all BTK-C constructs. Production of either the 77 kDa BTK-A isoform or the 65 kDa p65BTK was not observed for BTK-C constructs. GFP reporters were subcloned into MARXIVpuro REV plasmid (22). Full-length mutant proteins were produced by subcloning into a BTK gene with a C-terminal Flag tag expressed from a MARXIVpuro REV vector. DNA sequence was confirmed by DNA sequence analysis for all constructs. ϕNX-Ampho cells were transfected with Flag-tagged versions of BTK as described. Empty vector was used as a control. A lentivirus-born shRNA targeting the chromosomal BTK 3′UTR TRCN0000000358 (Sigma-Aldrich, Saint Louis, MO) was used to silence endogenous BTK isoform expression such that each line predominantly expresses the wild-type or mutant version of the intended isoform. BTK acylation: HEK293 cells plated on 6 wells plates were transfected using X-tremeGENE HP transfection reagent (Sigma-Aldrich, Saint Louis, MO) with 1 μg of BTK-C, BTK-A, or BTK-C C13A, C16A with 2 μg of zDHHC5 plasmid. 24 hours after transfection, cells were incubated with 100 μM of palmitic acid alkyne (in DMEM with 1 mg/ml defatted BSA) for 4 h at 37° C. Cells were washed twice in PBS, then lysed on ice in 50 mM Tris HCl, pH 7.4 with 150 mM NaCl, 1 mM EDTA, 1% TRITON X-100 and protein inhibitors. […]

breast cells = test: Toxicity of PI3K inhibition in breast cells; assay type: cell-based; settings: breast cells (not shown)
From the text: Regulation of BTK-C localization and activity by PIP3 levels: Activation of BTK-A in B cells has been extensively studied. Adsorption of BTK-A to the B cell plasma membrane is driven by binding to PIP3 which opens the BTK monomer conformation allowing dimerization, auto-activation (Y223 phosphorylation) and transactivation (Y551 phosphorylation). […] Mutation of the analogous arginine in BTK-C(R62 in BTK-C) causes it to fail to localize to the membrane (FIG. 3S). […] For example, MDA-MB-231 cells which are PTEN^+ display less plasma membrane staining when compared to SUM149 cells which are PTEN. […] This PIP3-dependent activation may occur through BTK-C dimer formation through juxtaposed membrane-bound PH domains as occurs with the BTK-A. Using an assay developed by Chung et al., co-transfecting BTK-C with the BTK-C-GFP construct which contains the PH domain but is missing the kinase domain reduces Y551 phosphorylation compared with vector or BTK-C only (FIG. 4D).

[3] = system: LNCaP C42b prostate cancer cell line; test: Toxicity of PI3K inhibition in LNCaP C42b cells; assay type: cell-based; settings: PTEN- LNCaP C42b prostate cancer cell line, compared with breast cells
BTK-A and BTK-C = test: Activating phosphorylation of BTK isoforms after stimulation with other ligands; assay type: cell-based, human; settings: ligand stimulation (not shown)
BTK-A [4] = test: Activating tyrosine phosphorylation of BTK-A after insulin stimulation (immunoblot densitometry); assay type: cell-based, human; settings: transfected HEK293 cells
Experimental: (§2) FIG. 5A-D present activating tyrosine phosphorylation of the BTK isoforms. BTK-A, BTK-C and BTK-C C13, C16 mutant constructs were transfected into HEK293 cell and after 24 hours stimulated with insulin. Values represent fold tyrosine-phosphorylated signal normalized to total BTK-A or BTK-C(anti-Flag) determined by densitometry; FIG. 5B presents phosphorylation of the BTK target tyrosine 759 of PLCγ2 in transfected HEK293 cells; FIG. 5C presents BTK-C expression increases proliferation rate of MDA-MB-231 (PTEN+) but not SUM149 (PTEN−) cells. Cells were seeded in 96 well plates and fixed with 4% formaldehyde and counted at 72 hours. Data were normalized to control and are presented as mean+SD. *p<0.05 using Student's ttest, n=3; and FIG. 5D presents BTK-C increases glucose uptake in MDA-MB-231 (PTEN+) but not SUM149 (PTEN−) cells. Cells were seeded and treated with 100 μM 2-NBDG for 15 min. Fluorescence images were acquired with an InCell 2200 and overall fluorescence intensity quantified. […]
(§3) Embodiment disclosed herein included the following materials and methods: Cell lines MD-AMB-231, BT549, SUM149, SKBr3 and ϕNX-AMPHO were obtained from the American Type Culture Collection (ATCC). […] In growth and uptake experiments, differences between control and treatment conditions were evaluated using Student's t test for pairwise comparisons. […]

BTK-C [5] = test: Activating tyrosine phosphorylation of BTK-C after insulin stimulation (immunoblot densitometry); assay type: cell-based, human; settings: transfected HEK293 cells
Experimental: as §2, §3

[6] = insulin stimulation under reduced serum conditions

Compound: C#CCCCCCCCCCCCCCCCC(=O)O [17-ODYA, 17-octadecynoic acid]
- incorporation of acyl analogue label into BTK-A (BTK-A [1]): not
- incorporation of acyl analogue label into BTK-C (BTK-C [2]): label is increased

Compound: C[C@H](Nc1ncnc2[nH]cnc12)c1cc2cccc(Cl)c2c(=O)n1-c1ccccc1 [IPI-145, Duvelisib]
- toxicity (breast cells): significant toxicity
- toxicity [3]: less toxicity

Compound: CCCCC/C=C\C/C=C\C/C=C\C/C=C\CCCC(=O)O [arachidonic acid]
- incorporation of acyl analogue label into BTK-C (BTK-C [2]): failed to observe incorporation

Compound: CCCCCCCC/C=C\CCCCCCCC(=O)O [oleic acid]
- incorporation of acyl analogue label into BTK-C (BTK-C [2]): failed to observe incorporation

Compound: CCCCCC/C=C\CCCCCCCC(=O)O [palmitoleic acid]
- incorporation of acyl analogue label into BTK-C (BTK-C [2]): failed to observe incorporation

Compound: EGF: ligand used for stimulation of BTK activation (NSDSECPLSHDGYCLHDGVCMYIEALDKYACNCVVGYIGERCQYRDLKWWELR; UniProt P01133 971-1023, looked up)
- increase of activating phosphorylation levels above unstimulated levels (BTK-A and BTK-C): only modestly

Compound: Insulin: common activator of PI3K in cancer cells
- transactivation (phosphorylation of BTK by its dimerized partner) of BTK-A (BTK-A [4]; insulin stimulation (FIG. 5A)): largely unchanged
- increase of Y551 phosphorylation of BTK-A (BTK-A [4]; [6]): two-fold
- transactivation (phosphorylation of BTK by its dimerized partner) of BTK-C (BTK-C [5]; insulin stimulation (FIG. 5A)): largely unchanged
- increase of Y551 phosphorylation of BTK-C (BTK-C [5]; [6]): ~24%
